Source: article PMC8452302 (CPT: Pharmacometrics & Systems Pharmacology, 2021)
Like-named read-outs stand apart in the source and are kept apart here. Values belong to the molecule of their own block, whether it stands above or below them.

Columns and labels:
[1] = target: T1, OATP1B3 (Homo sapiens, UniProt Q9NPD5); assay: Static DDI risk assessment, OATP1B3 R-value; details: 1 + Iin,max,u/IC50; metabolite/combination additive; Imax,u for IV
T1 sequence (Q9NPD5 1-702): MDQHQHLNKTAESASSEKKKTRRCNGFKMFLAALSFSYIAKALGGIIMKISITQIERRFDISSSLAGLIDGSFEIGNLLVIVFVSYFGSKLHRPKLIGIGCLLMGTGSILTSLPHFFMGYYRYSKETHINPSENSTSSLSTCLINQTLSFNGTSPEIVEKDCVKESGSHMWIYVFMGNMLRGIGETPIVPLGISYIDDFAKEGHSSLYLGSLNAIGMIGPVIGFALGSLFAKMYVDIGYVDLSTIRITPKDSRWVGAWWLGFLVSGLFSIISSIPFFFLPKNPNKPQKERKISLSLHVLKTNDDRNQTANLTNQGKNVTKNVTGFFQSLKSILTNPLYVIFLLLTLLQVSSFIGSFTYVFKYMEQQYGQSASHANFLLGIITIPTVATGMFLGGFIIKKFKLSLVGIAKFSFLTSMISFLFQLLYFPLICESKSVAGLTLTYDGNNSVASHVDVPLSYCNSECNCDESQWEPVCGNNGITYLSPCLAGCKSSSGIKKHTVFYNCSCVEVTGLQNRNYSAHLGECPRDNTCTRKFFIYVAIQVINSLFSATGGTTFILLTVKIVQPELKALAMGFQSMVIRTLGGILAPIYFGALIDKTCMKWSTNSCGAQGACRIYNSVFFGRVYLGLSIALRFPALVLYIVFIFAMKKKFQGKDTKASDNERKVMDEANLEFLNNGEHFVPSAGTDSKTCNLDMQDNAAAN

[2] = cited from earlier work; for Rosuvastatin AUC ratio: observed, rosuvastatin with vs without inhibitor; for Rosuvastatin AUC ratio / Cmax ratio Observed: ref Table S1; for Cmax ratio Observed: rosuvastatin with/without inhibitor, regimens as in table row
[3] = target: T2, OATP1B1 (Homo sapiens, UniProt Q9Y6L6); assay: In vitro OATP1B1 inhibition, transfected HEK293 cells, rosuvastatin probe; assay type: cell-based
T2 sequence (Q9Y6L6 1-691): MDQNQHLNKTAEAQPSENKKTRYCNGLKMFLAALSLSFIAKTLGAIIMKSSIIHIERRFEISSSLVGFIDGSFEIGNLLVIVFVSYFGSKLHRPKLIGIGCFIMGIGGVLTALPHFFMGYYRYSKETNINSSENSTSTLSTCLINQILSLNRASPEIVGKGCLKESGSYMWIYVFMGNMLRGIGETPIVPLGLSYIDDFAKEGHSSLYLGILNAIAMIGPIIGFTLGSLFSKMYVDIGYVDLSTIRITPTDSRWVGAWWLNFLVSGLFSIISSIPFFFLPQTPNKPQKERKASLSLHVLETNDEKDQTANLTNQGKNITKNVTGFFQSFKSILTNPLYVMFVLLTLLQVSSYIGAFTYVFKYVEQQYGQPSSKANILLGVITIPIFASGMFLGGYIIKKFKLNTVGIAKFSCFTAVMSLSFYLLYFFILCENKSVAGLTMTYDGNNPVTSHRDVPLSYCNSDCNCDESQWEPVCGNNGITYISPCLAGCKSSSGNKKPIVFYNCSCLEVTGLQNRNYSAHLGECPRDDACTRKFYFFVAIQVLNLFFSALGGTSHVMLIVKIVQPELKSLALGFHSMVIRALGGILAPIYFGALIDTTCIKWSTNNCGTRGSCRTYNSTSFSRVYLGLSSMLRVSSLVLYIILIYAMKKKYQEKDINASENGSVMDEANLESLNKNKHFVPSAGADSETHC

[4] = target: T1, OATP1B3; assay: In vitro OATP1B3 inhibition, transfected HEK293 cells, rosuvastatin probe; assay type: cell-based
[5] = target: T3, BCRP (Homo sapiens, UniProt Q9UNQ0); assay: In vitro BCRP inhibition, HEK293-BCRP membrane vesicles, rosuvastatin probe; assay type: biochemical
T3 sequence (Q9UNQ0 1-655): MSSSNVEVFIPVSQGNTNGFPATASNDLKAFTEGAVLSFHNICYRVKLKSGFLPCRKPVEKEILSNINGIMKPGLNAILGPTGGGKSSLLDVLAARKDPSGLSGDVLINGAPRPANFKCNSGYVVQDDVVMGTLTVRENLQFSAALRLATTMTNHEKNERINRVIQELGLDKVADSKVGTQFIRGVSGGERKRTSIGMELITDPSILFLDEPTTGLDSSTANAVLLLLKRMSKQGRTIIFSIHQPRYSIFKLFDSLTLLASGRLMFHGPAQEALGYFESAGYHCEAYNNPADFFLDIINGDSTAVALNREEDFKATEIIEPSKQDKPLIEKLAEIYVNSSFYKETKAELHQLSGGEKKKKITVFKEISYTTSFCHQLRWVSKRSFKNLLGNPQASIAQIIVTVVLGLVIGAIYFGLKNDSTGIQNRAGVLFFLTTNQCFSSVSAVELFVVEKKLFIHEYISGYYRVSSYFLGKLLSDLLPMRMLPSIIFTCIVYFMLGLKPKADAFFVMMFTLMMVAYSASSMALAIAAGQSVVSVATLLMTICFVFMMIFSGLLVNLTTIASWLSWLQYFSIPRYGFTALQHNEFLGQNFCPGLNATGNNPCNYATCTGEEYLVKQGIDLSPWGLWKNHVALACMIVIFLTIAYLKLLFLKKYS

[6] = target: T2, OATP1B1; assay: Static DDI risk assessment, OATP1B1 R-value; details: 1 + Iin,max,u/IC50; metabolite/combination additive; Imax,u for IV
[7] = test system: OATP1B1; details: cited from earlier work
[8] = test system: BCRP (ABCG2 c.421C>A); details: cited from earlier work
[9] = substrate: CC(C)c1nc(N(C)S(C)(=O)=O)nc(-c2ccc(F)cc2)c1/C=C/[C@@H](O)C[C@@H](O)CC(=O)O; assay: OATP1B1-mediated transport of substrate; assay type: in vitro ADME; details: other: transfected HEK293 cells
[10] = substrate: CC(C)c1nc(N(C)S(C)(=O)=O)nc(-c2ccc(F)cc2)c1/C=C/[C@@H](O)C[C@@H](O)CC(=O)O; assay: BCRP-mediated transport of substrate; assay type: in vitro ADME, human; details: other: membrane vesicles

- 1B3 R-Value [1]: 3.86
- IC50 [3]: 6800 nM
- IC50 [4]: 1100 nM
- IC50 [5]: 630 nM
- 1B1 R-Value [6]: 1.46
Molecule: C[C@H]1CN(C2COC2)CCN1c1ccc(Nc2cc(-c3ccnc(N4CCn5c(cc6c5CC(C)(C)C6)C4=O)c3CO)cn(C)c2=O)nc1 [Fenebrutinib]
- increase in rosuvastatin AUC [2]: ~ 150%
- Rosuvastatin AUC ratio [2]: 2.48
- Cmax ratio Observed [2]: 4.74
- change in plasma exposure of OATP1B1 biomarker coproporphyrin I [7]: no change

- 1B3 R-Value [1]: 1.07
- IC50 ([5]; read-out: BCRP IC50, membrane vesicles, rosuvastatin 0.2 µM probe): 4030 nM
- 1B1 R-Value [6]: 1.24
Molecule: C=C[C@@H]1C[C@]1(NC(=O)[C@@H]1C[C@@H]2CN1C(=O)[C@H](C(C)(C)C)NC(=O)O[C@@H]1C[C@H]1CCCCCc1nc3ccc(OC)cc3nc1O2)C(=O)NS(=O)(=O)C1CC1.O [Grazoprevir]
- Rosuvastatin AUC ratio [2]: 1.59
- Cmax ratio Observed [2]: 4.25
- effect on clinical PK of pitavastatin (OATP1B1 probe substrate) [7]: do not alter

- 1B3 R-Value [1]: 1.02
- IC50 [3]: 1960 nM
- IC50 [4]: 2150 nM
- IC50 [5]: 4100 nM
- 1B1 R-Value [6]: 1.02
Molecule: CC[C@H]1[C@@H](O)[C@@H]2[C@H](CC[C@]3(C)[C@@H]([C@H](C)CCC(=O)O)CC[C@@H]23)[C@@]2(C)CC[C@@H](O)C[C@@H]12 [Obeticholic acid]
- Rosuvastatin AUC ratio [2]: 1.25

Molecule: O=C(O)c1cc(/N=N/c2ccc(S(=O)(=O)Nc3ccccn3)cc2)ccc1O [sulfasalazine]
- increase in oral exposure, c.421A/A vs c.421C/C carriers [8]: ≤ 3.5 fold

B1: OATP1B1 (Homo sapiens) (protein)
chain: T2 sequence (Q9Y6L6 1-691)
- Km [9]: 3.8 µM

B2: BCRP (Homo sapiens) (protein)
chain: T3 sequence (Q9UNQ0 1-655)
- Km [10]: 3.2 µM
